# Assays:
# barnyard grass [1] = assay: Test Example 3: herbicidal effect by foliage application, Wagner pot (Table 18, symbol H); format: in vivo, barnyard grass (Echinochloa crus-galli); conditions: 320 g/ha
# How it was run: (§1)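 Plants were sown in alluvial soil held under 0.1–0.5 cm standing water and grown 14 days in a greenhouse at 25–30 °C. An emulsifiable formulation, water-diluted to the set dose, was then sprayed onto the foliage, and effects were scored three weeks later using previously defined criteria.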
# Chinese sprangletop = assay: Test Example 3: herbicidal effect by foliage application, Wagner pot (Table 18, symbol D); format: in vivo, chinese sprangletop (Leptochloa chinensis); conditions: 320 g/ha
# How it was run: as §1
# rice flat sedge = assay: Test Example 3: herbicidal effect by foliage application, Wagner pot (Table 18, symbol E); format: in vivo, rice flat sedge (Cyperus iria); conditions: 320 g/ha
# How it was run: as §1
# southern crabgrass [2] = assay: Test Example 4: herbicidal effect by soil treatment (Table 19, symbol F); format: in vivo, southern crabgrass (Digitaria ciliaris); conditions: AAH 320 g/ha
# How it was run: (§2)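 Pre-emergence style soil spray: seeds under ~1.5 cm sterilized diluvial soil received a uniform coat of emulsion diluted to the predetermined herbicide amount. Greenhouse 25–30° C; readout at week three on previously defined criteria.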
# green foxtail [3] = assay: Test Example 4: herbicidal effect by soil treatment (Table 19, symbol G); format: in vivo, green foxtail (Setaria viridis); conditions: AAH 320 g/ha
# How it was run: as §2
# barnyard grass [4] = assay: Test Example 4: herbicidal effect by soil treatment (Table 19, symbol H); format: in vivo, barnyard grass (Echinochloa crus-galli); conditions: AAH 320 g/ha
# How it was run: as §2
# wild oat [5] = assay: Test Example 4: herbicidal effect by soil treatment (Table 19, symbol I); format: in vivo, wild oat (Avena fatua); conditions: AAH 320 g/ha
# How it was run: as §2
# blackgrass [6] = assay: Test Example 4: herbicidal effect by soil treatment (Table 19, symbol J); format: in vivo, blackgrass (Alopecurus myosuroides); conditions: AAH 320 g/ha
# Description: (§3) [Test Example 4] Herbicidal Effect Test by Soil Treatment
# (§4) Sterilized diluvial soil was placed in a plastic box having a length of 21 cm, a width of 13 cm, and a depth of 7 cm. The seeds of each of southern crabgrass, green foxtail, barnyard grass, wild oat, blackgrass, Italian ryegrass, windgrass, velvetleaf, redroot pigweed, lambsquarters, chickweed, false cleavers, persian speedwell, corn, soybean, rice, wheat, beet, and rapeseed were sowed in a spot-like manner and covered with the soil having a thickness of about 1.5 cm. Subsequently, the emulsion agent of the compound of the present invention prepared according to Formulation Example 2 was diluted with water so as to achieve a predetermined herbicide amount, and the diluted emulsion agent was uniformly applied to the surface of the soil with a small-sized spray. The plastic box was placed in a greenhouse at 25° C. to 30° C. for growth of the plants. Three weeks after the herbicide application, the effect of the herbicide on each plant was evaluated according to the criteria of Test Example 1.
# Italian ryegrass [7] = assay: Test Example 4: herbicidal effect by soil treatment (Table 19, symbol K); format: in vivo, Italian ryegrass (Lolium multiflorum); conditions: AAH 320 g/ha
# How it was run: as §2
# velvetleaf [8] = assay: Test Example 4: herbicidal effect by soil treatment (Table 19, symbol M); format: in vivo, velvetleaf (Abutilon theophrasti); conditions: AAH 320 g/ha
# How it was run: as §2
# redroot pigweed [9] = assay: Test Example 4: herbicidal effect by soil treatment (Table 19, symbol N); format: in vivo, redroot pigweed (Amaranthus retroflexus); conditions: AAH 320 g/ha
# How it was run: as §2
# lambsquarters [10] = assay: Test Example 4: herbicidal effect by soil treatment (Table 19, symbol O); format: in vivo, lambsquarters (Chenopodium album); conditions: AAH 320 g/ha
# How it was run: as §2
# chickweed [11] = assay: Test Example 4: herbicidal effect by soil treatment (Table 19, symbol P); format: in vivo, common chickweed (Stellaria media); conditions: AAH 320 g/ha
# Description: as §3, §4
# persian speedwell [12] = assay: Test Example 4: herbicidal effect by soil treatment (Table 19, symbol R); format: in vivo, Persian speedwell (Veronica persica); conditions: AAH 320 g/ha
# Description: as §3, §4
# southern crabgrass [13] = assay: Test Example 5: herbicidal effect by foliage application, plastic box (Table 20, symbol F); format: in vivo, southern crabgrass (Digitaria ciliaris); conditions: foliage application, AAH 320 g/ha, three weeks after application
# How it was run: (§5)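 Plants were sown into sterilized diluvial soil under about 1.5 cm cover and kept in a greenhouse at 25° C. to 30° C. Fourteen days on, foliage received an even spray of the diluted emulsion. Herbicidal or crop effect was judged three weeks afterwards.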
# green foxtail [14] = assay: Test Example 5: herbicidal effect by foliage application, plastic box (Table 20, symbol G); format: in vivo, green foxtail (Setaria viridis); conditions: foliage application, AAH 320 g/ha, three weeks after application
# How it was run: as §5
# barnyard grass [15] = assay: Test Example 5: herbicidal effect by foliage application, plastic box (Table 20, symbol H); format: in vivo, barnyard grass (Echinochloa crus-galli); conditions: foliage application, AAH 320 g/ha, three weeks after application
# How it was run: as §5
# wild oat [16] = assay: Test Example 5: herbicidal effect by foliage application, plastic box (Table 20, symbol I); format: in vivo, wild oat (Avena fatua); conditions: foliage application, AAH 320 g/ha, three weeks after application
# How it was run: as §5
# blackgrass [17] = assay: Test Example 5: herbicidal effect by foliage application, plastic box (Table 20, symbol J); format: in vivo, blackgrass (Alopecurus myosuroides); conditions: foliage application, AAH 320 g/ha, three weeks after application
# How it was run: as §5
# Italian ryegrass [18] = assay: Test Example 5: herbicidal effect by foliage application, plastic box (Table 20, symbol K); format: in vivo, Italian ryegrass (Lolium multiflorum); conditions: foliage application, AAH 320 g/ha, three weeks after application
# How it was run: as §5
# windgrass = assay: Test Example 5: herbicidal effect by foliage application, plastic box (Table 20, symbol L); format: in vivo, windgrass (Apera spica-venti); conditions: foliage application, AAH 320 g/ha, three weeks after application
# How it was run: as §5
# velvetleaf [19] = assay: Test Example 5: herbicidal effect by foliage application, plastic box (Table 20, symbol M); format: in vivo, velvetleaf (Abutilon theophrasti); conditions: foliage application, AAH 320 g/ha, three weeks after application
# How it was run: as §5
# redroot pigweed [20] = assay: Test Example 5: herbicidal effect by foliage application, plastic box (Table 20, symbol N); format: in vivo, redroot pigweed (Amaranthus retroflexus); conditions: foliage application, AAH 320 g/ha, three weeks after application
# How it was run: as §5
# lambsquarters [21] = assay: Test Example 5: herbicidal effect by foliage application, plastic box (Table 20, symbol O); format: in vivo, lambsquarters (Chenopodium album); conditions: foliage application, AAH 320 g/ha, three weeks after application
# How it was run: as §5
# chickweed [22] = assay: Test Example 5: herbicidal effect by foliage application, plastic box (Table 20, symbol P); format: in vivo, common chickweed (Stellaria media); conditions: foliage application, AAH 320 g/ha, three weeks after application
# How it was run: as §5
# persian speedwell [23] = assay: Test Example 5: herbicidal effect by foliage application, plastic box (Table 20, symbol R); format: in vivo, Persian speedwell (Veronica persica); conditions: foliage application, AAH 320 g/ha, three weeks after application
# How it was run: as §5
smiles,measurement,setting,value
COc1ccc(Cl)cc1-c1sc2ccccc2c1-c1c(O)c(OC)nn(C)c1=O [1-178],"herbicidal effect on H (barnyard grass), rating 0-5",barnyard grass [1],4 (Herbicidal rate of 70% or more and less than 90%)
same,"herbicidal effect on D (Chinese sprangletop), rating 0-5",Chinese sprangletop,0 (Herbicidal rate of 5% or less (almost no effect))
same,"herbicidal effect on E (rice flat sedge), rating 0-5",rice flat sedge,5 (Herbicidal rate of 90% or more (almost completely withered))
same,"F: southern crabgrass, herbicidal effect rating",southern crabgrass [2],0 (Herbicidal rate of 5% or less (almost no effect))
same,"G: green foxtail, herbicidal effect rating",green foxtail [3],0 (Herbicidal rate of 5% or less (almost no effect))
same,"H: barnyard grass, herbicidal effect rating",barnyard grass [4],0 (Herbicidal rate of 5% or less (almost no effect))
same,"I: wild oat, herbicidal effect rating",wild oat [5],0 (Herbicidal rate of 5% or less (almost no effect))
same,"J: blackgrass, herbicidal effect rating",blackgrass [6],1 (Herbicidal rate of 5% or more and less than 20%)
same,"K: Italian ryegrass, herbicidal effect rating",Italian ryegrass [7],0 (Herbicidal rate of 5% or less (almost no effect))
same,"M: velvetleaf, herbicidal effect rating",velvetleaf [8],0 (Herbicidal rate of 5% or less (almost no effect))
same,"N: redroot pigweed, herbicidal effect rating",redroot pigweed [9],4 (Herbicidal rate of 70% or more and less than 90%)
same,"O: lambsquarters, herbicidal effect rating",lambsquarters [10],0 (Herbicidal rate of 5% or less (almost no effect))
same,"P: chickweed, herbicidal effect rating",chickweed [11],4 (Herbicidal rate of 70% or more and less than 90%)
same,"R: persian speedwell, herbicidal effect rating",persian speedwell [12],4 (Herbicidal rate of 70% or more and less than 90%)
same,"F: southern crabgrass, herbicidal effect",southern crabgrass [13],3 (Herbicidal rate of 40% or more and less than 70%)
same,"G: green foxtail, herbicidal effect",green foxtail [14],4 (Herbicidal rate of 70% or more and less than 90%)
same,"H: barnyard grass, herbicidal effect",barnyard grass [15],4 (Herbicidal rate of 70% or more and less than 90%)
same,"I: wild oat, herbicidal effect",wild oat [16],4 (Herbicidal rate of 70% or more and less than 90%)
same,"J: blackgrass, herbicidal effect",blackgrass [17],1 (Herbicidal rate of 5% or more and less than 20%)
same,"K: Italian ryegrass, herbicidal effect",Italian ryegrass [18],0 (Herbicidal rate of 5% or less (almost no effect))
same,"L: windgrass, herbicidal effect",windgrass,4 (Herbicidal rate of 70% or more and less than 90%)
same,"M: velvetleaf, herbicidal effect",velvetleaf [19],3 (Herbicidal rate of 40% or more and less than 70%)
same,"N: redroot pigweed, herbicidal effect",redroot pigweed [20],5 (Herbicidal rate of 90% or more (almost completely withered))
same,"O: lambsquarters, herbicidal effect",lambsquarters [21],4 (Herbicidal rate of 70% or more and less than 90%)
same,"P: chickweed, herbicidal effect",chickweed [22],5 (Herbicidal rate of 90% or more (almost completely withered))
same,"R: persian speedwell, herbicidal effect",persian speedwell [23],4 (Herbicidal rate of 70% or more and less than 90%)
